The text below walks through data of patent EP0456257A1, “Silver halide color photographic material” (FUJI PHOTO FILM CO., LTD., priority 1990, dated 1991).

Structures are written as SMILES.

The nature of this series: Spectral absorption of yellow-colored coupler in methanol. The format is physicochemical. On the procedure:
The melting point of the compound was 269 to 272" C (decomposition). The structure of the compound was confirmed by H-NMR spectrum, mass spectrum and elementary analysis.
75 ml of methyl cellosolve and 26 ml of water were added to 10.1 g of Compound b (prepared as in Synthesis Example 1) and 10.7 g of sodium acetate. The diazonium solution was then added to the system with stirring under cooling with ice. After the dropwise addition was completed, the system was further stirred for 1 hour under ice-cooling and then for 2 hours at room temperature. The resulting crystal was filtered off. The crystal was then dispersed in 200 ml of methanol. A solution of 2.2 g of sodium hydroxide in 10 ml of water was added dropwise to the dispersion. The material was stirred for 3 hours. The system was neutralized with concentrated hydrochloric acid. The resulting crystal was washed with water and then with methanol, and then dried. The resulting crude crystal was purified with heat methanol in the same manner as in Synthesis Example 1 to obtain 14.8 g of Exemplary Coupler (YC-3). The melting point of the compound was 246 to 251 ° C (decomposition). The structure of the compound was confirmed by 'H-NMR spectrum, mass spectrum and elementary analysis.
13.0 g of Compound g prepared by the synthesis method as described in U.S. Patent 4,138,258 was dissolved in 40 ml of N,N-dimethylformamide. […]

For `CCCCCCCCC(CCCCCC)COCCCNC(=O)c1cc(OCCOc2ccc(N=Nc3c(C)c(C#N)c(=O)n(-c4ccccc4C(=O)O)c3O)cc2)c2ccccc2c1O` (centres unmarked) [YC-30], the maximum absorption wavelength turned out to be 458.2 nm and the molecular extinction coefficient was 42,800.
